Values of other authors as cited in patent US6525025B2, “Gamma-ketoacid dipeptides as inhibitors of caspase-3” (Merck Frosst Canada & Co., priority 2000, dated 2003).

What was measured:
caspase-1 = molecular target: T1, caspase-1 (Homo sapiens, UniProt P29466)
T1 sequence (P29466 120-297 limits assumed): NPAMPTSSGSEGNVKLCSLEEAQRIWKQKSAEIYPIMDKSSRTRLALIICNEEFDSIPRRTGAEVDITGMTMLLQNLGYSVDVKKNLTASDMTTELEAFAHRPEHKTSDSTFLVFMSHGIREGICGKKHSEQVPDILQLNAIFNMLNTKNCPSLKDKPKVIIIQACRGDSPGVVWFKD
T1 sequence (P29466 317-404 limits assumed): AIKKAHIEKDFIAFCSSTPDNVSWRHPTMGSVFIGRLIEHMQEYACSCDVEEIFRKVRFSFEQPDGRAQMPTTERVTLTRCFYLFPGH

caspase-3 = molecular target: T2, caspase-3 (Homo sapiens, UniProt P42574)
T2 sequence (P42574 29-175 limits assumed): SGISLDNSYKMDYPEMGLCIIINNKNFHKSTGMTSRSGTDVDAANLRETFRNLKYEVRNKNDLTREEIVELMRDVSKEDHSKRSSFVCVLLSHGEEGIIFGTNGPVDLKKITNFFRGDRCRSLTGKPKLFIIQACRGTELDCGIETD
T2 sequence (P42574 176-277 limits assumed): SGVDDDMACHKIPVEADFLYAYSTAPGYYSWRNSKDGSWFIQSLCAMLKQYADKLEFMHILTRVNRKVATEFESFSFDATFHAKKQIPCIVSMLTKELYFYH

## Ac-YVAD-CHO
caspase-1
  Ki: < 0.001 µM
caspase-3
  Ki: 12 µM
